# According to US12708630B2, “Combined therapy of 4′-thio-5-aza-2′-deoxycytidine and Venetoclax” (PINOTBIO, INC., priority 2021, dated 2026):
# Assays:
# Assay in all cases: drug activity profiling cytotoxicity
# Type in all cases: cell-based
# A375 = settings: Homo sapiens, A-375; A375 cell line, Skin (Melanoma); read-out: Aza-T-dCyd IC50
# How it was run: (§1)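 Aza-T-dCyd profiled, cytotoxicity endpoint, 200-line panel, biomarker-oriented.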
# BT474 = settings: Homo sapiens, BT-474; BT474 cell line, Breast; read-out: Aza-T-dCyd IC50
# How it was run: as §1
# C-33A = settings: Homo sapiens; C-33A cell line, Female GU (Cervix); read-out: Aza-T-dCyd IC50
# How it was run: as §1
# CML-T1 = CML-T1 cell line, read-out: Aza-T-dCyd IC50
# How it was run: as §1
# Calu6 = settings: Homo sapiens, Calu-6; Calu6 cell line, Lung (NSCLC); read-out: Aza-T-dCyd IC50
# How it was run: as §1
# Capan-1 = settings: Homo sapiens; Capan-1 cell line, Pancreas; read-out: Aza-T-dCyd IC50
# How it was run: as §1
# DB = settings: Homo sapiens; DB cell line, B-cell lymphoma; read-out: Aza-T-dCyd IC50
# How it was run: as §1
# GA-10 = settings: Homo sapiens; GA-10 cell line, Burkitt's lymphoma; read-out: Aza-T-dCyd IC50
# How it was run: as §1
# HT-29 = settings: Homo sapiens; HT-29 cell line, Colon; read-out: Aza-T-dCyd IC50
# How it was run: as §1
# HT-3 = settings: Homo sapiens; HT-3 cell line, Female GU (Cervix); read-out: Aza-T-dCyd IC50
# How it was run: as §1
# Hs 578T = settings: Homo sapiens; Hs 578T cell line, Breast; read-out: Aza-T-dCyd IC50
# How it was run: as §1
# IM-9 = settings: Homo sapiens; IM-9 cell line, B-cell lymphoma; read-out: Aza-T-dCyd IC50
# How it was run: as §1
# LS1034 = settings: Homo sapiens, LS-1034; LS1034 cell line, Colon; read-out: Aza-T-dCyd IC50
# How it was run: as §1
# MC116 = settings: Homo sapiens; MC116 cell line, B-cell lymphoma; read-out: Aza-T-dCyd IC50
# How it was run: as §1
# MDA MB 415 = settings: Homo sapiens; MDA MB 415 cell line, Breast; read-out: Aza-T-dCyd IC50
# How it was run: as §1
# MG-63 = settings: Homo sapiens; MG-63 cell line, Bone (Osteosarcoma); read-out: Aza-T-dCyd IC50
# How it was run: as §1
# NAMALWA = NAMALWA cell line, Burkitt's lymphoma; read-out: Aza-T-dCyd IC50
# How it was run: as §1
# PC-3 = settings: Homo sapiens; PC-3 cell line, Prostate; read-out: Aza-T-dCyd IC50
# How it was run: as §1
# PSN-1 = settings: Homo sapiens, PSN1; PSN-1 cell line, Pancreas; read-out: Aza-T-dCyd IC50
# How it was run: as §1
# RL95-2 = settings: Homo sapiens; RL95-2 cell line, Female GU (Uterus); read-out: Aza-T-dCyd IC50
# How it was run: as §1
# RPMI 6666 = settings: Homo sapiens; RPMI 6666 cell line, Hodgkin's lymphoma; read-out: Aza-T-dCyd IC50
# How it was run: as §1
# SCC-4 = settings: Homo sapiens; SCC-4 cell line, Head and Neck; read-out: Aza-T-dCyd IC50
# How it was run: as §1
# SCaBER = settings: Homo sapiens; SCaBER cell line, Bladder; read-out: Aza-T-dCyd IC50
# How it was run: as §1
# SJRH30 = settings: Homo sapiens; SJRH30 cell line, Sarcoma; read-out: Aza-T-dCyd IC50
# How it was run: as §1
# SKMES1 = settings: Homo sapiens, SK-MES-1; SKMES1 cell line, Lung (NSCLC); read-out: Aza-T-dCyd IC50
# How it was run: as §1
# SKOV3 = settings: Homo sapiens, SK-OV-3; SKOV3 cell line, Female GU (Ovary); read-out: Aza-T-dCyd IC50
# How it was run: as §1
# SW837 = settings: Homo sapiens; SW837 cell line, Colon; read-out: Aza-T-dCyd IC50
# How it was run: as §1
# SW872 = settings: Homo sapiens; SW872 cell line, Sarcoma; read-out: Aza-T-dCyd IC50
# How it was run: as §1
# SW982 = settings: Homo sapiens; SW982 cell line, Sarcoma; read-out: Aza-T-dCyd IC50
# How it was run: as §1
# T98G = settings: Homo sapiens; T98G cell line, CNS (Glioma); read-out: Aza-T-dCyd IC50
# How it was run: as §1
# YAPC = settings: Homo sapiens; YAPC cell line, Pancreas; read-out: Aza-T-dCyd IC50
# How it was run: as §1
smiles,measurement,setting,value
"Nc1ncn([C@H]2CC(O)[C@@H](CO)S2)c(=O)n1 (stereo partly shown) [Aza-T-dCyd, 4′-thio-5-aza-2′-deoxycytidine]",IC50,A375,66.7 nM
same,IC50,BT474,> 10000 nM
same,IC50,C-33A,497 nM
same,IC50,CML-T1,109 nM
same,IC50,Calu6,289 nM
same,IC50,Capan-1,3320 nM
same,IC50,DB,135 nM
same,IC50,GA-10,33.5 nM
same,IC50,HT-29,323 nM
same,IC50,HT-3,818 nM
same,IC50,Hs 578T,> 10000 nM
same,IC50,IM-9,1050 nM
same,IC50,LS1034,1410 nM
same,IC50,MC116,29.7 nM
same,IC50,MDA MB 415,> 10000 nM
same,IC50,MG-63,990 nM
same,IC50,NAMALWA,10.9 nM
same,IC50,PC-3,441 nM
same,IC50,PSN-1,191 nM
same,IC50,RL95-2,705 nM
same,IC50,RPMI 6666,1050 nM
same,IC50,SCC-4,2860 nM
same,IC50,SCaBER,187 nM
same,IC50,SJRH30,291 nM
same,IC50,SKMES1,314 nM
same,IC50,SKOV3,2920 nM
same,IC50,SW837,354 nM
same,IC50,SW872,730 nM
same,IC50,SW982,171 nM
same,IC50,T98G,1390 nM
same,IC50,YAPC,1050 nM
